# Laboratory results: patent US20200085839A1, “COMBINATION OF IMMUNOTHERAPEUTICS AND BISFLUOROALKYL-1,4-BENZODIAZEPINONE COMPOUNDS FOR TREATING LYMPHOMAS” (Ayala Pharmaceuticals Inc., priority 2018, published 2020)
# Where two headings read alike, the source gives them in different places.
# What was measured:
# Assay in all cases: Cell surface BCMA by FACS
# Assay type in all cases: cell-based, human
# Details in all cases: for EC50: Homo sapiens
# ST486 cells (DLBCL) = tested on: ST486 cells (DLBCL)
# Description: (§1) […] cell lines, comprising 9 subtypes of lymphomas (see Table 1), were seeded at 1×10^5 cells/well in a total volume of 250 μl into a 96-well plate. The cells were cultured in RPMI medium supplemented with 10% FCS. Compound (22) was added to the cell cultures at a concentration of 10 μM, 1 μM, 100 nM, 10 nM, 1 nM, 100 pM, 10 pM, 1 pM, and 100 fM, and cell lines (8 from Hadassah Medical Center, 31 from Eurofins) were incubated at 37° C. for 24 hours with Compound (22). Following incubation, the cells were collected and BCMA levels were evaluated on the cell surface for cell-bound BCMA. Cells were stained with an anti-BCMA antibody (PE anti-human 19F2 BCMA, Biolegend), and cell surface BCMA levels were determined by FACS analysis (Mean Fluorescence Intensity. Soluble BCMA levels were analyzed by ELISA (Human BCMA/TNFRSF17 DuoSet kit: R&D Systems).
# [1] = tested on: JVM-2 cells (Mantle Cell Lymphoma)
# Description: as §1
# [2] = tested on: Namalwa cells (Burkitt's Lymphoma)
# Description: as §1
# [3] = tested on: CRO-AP2 cells (B-cell Lymphoma)
# Description: as §1
# [4] = tested on: GA-10 cells (Burkitt's Lymphoma)
# Description: as §1
# [5] = tested on: Jiyoye cells (Burkitt's Lymphoma)
# Description: as §1
# SUDHL-8 cells (DLBCL) = tested on: SUDHL-8 cells (DLBCL)
# Description: as §1
# SUDHL-10 cells (DLBCL) = tested on: SUDHL-10 cells (DLBCL)
# Description: as §1
# [6] = tested on: Ramos cells (Burkitt's Lymphoma)
# Description: as §1
# [7] = tested on: SR cells (Anaplastic Large Cell Lymphoma)
# Description: as §1
# [8] = tested on: EB-3 cells (Burkitt's Lymphoma)
# Description: as §1
# [9] = tested on: U937 cells (Histiocytic Lymphoma)
# Description: as §1
# [10] = tested on: RPMI-6666 cells (Hodgkin's Lymphoma)
# Description: as §1
# [11] = tested on: CA46 cells (Burkitt's Lymphoma)
# Description: as §1
# [12] = tested on: H9 cells (Cutaneous T-cell Lymphoma)
# Description: as §1
# [13] = tested on: Daudi cells (Burkitt's Lymphoma)
# Description: as §1
# [14] = tested on: BCP-1 cells (B-cell Lymphoma)
# Description: as §1
# DB cells (DLBCL) = tested on: DB cells (DLBCL)
# Description: as §1
# [15] = tested on: L-248 cells (Hodgkin's Lymphoma)
# Description: as §1
# [16] = 24 h, read-out: BCMA (Mean Fluorescence Intensity) EC50
structure (smiles),measurement,setting,value
"Cc1cccc2c1NC(=O)[C@@H](NC(=O)[C@H](CCC(F)(F)F)[C@H](CCC(F)(F)F)C(N)=O)N=C2c1cccc(F)c1 [Compound (22), (2R,3S)—N-((3S)-5-(3-fluorophenyl)-9-methyl-2-oxo-2,3-dihydro-1H-1,4-benzodiazepin-3-yl)-2,3-bis(3,3,3-trifluoropropyl)succinamide]",mBCMA (MFI) Fold Increase,ST486 cells (DLBCL),4.5 fold
same,BCMA (Mean Fluorescence Intensity) 1 nM Compound (22),"ST486 cells (DLBCL); 1 nM, 24 h",10564
same,BCMA (Mean Fluorescence Intensity) 100 nM Compound (22),"ST486 cells (DLBCL); 100 nM, 24 h",13410
same,EC50,ST486 cells (DLBCL); [16],0.58 nM
same,EC50,ST486 cells (DLBCL); read-out: mBCMA (MFI) EC50,0.58 nM
same,mBCMA (MFI) Fold Increase,[1],7.0 fold
same,BCMA (Mean Fluorescence Intensity) 1 nM Compound (22),"[1]; 1 nM, 24 h",4437
same,BCMA (Mean Fluorescence Intensity) 100 nM Compound (22),"[1]; 100 nM, 24 h",21757
same,EC50,[1]; [16],3.1 nM
same,EC50,[1]; read-out: mBCMA (MFI) EC50,3.1 nM
same,mBCMA (MFI) Fold Increase,[2],2.0 fold
same,BCMA (Mean Fluorescence Intensity) 1 nM Compound (22),"[2]; 1 nM, 24 h",1395
same,BCMA (Mean Fluorescence Intensity) 100 nM Compound (22),"[2]; 100 nM, 24 h",1690
same,EC50,[2]; [16],10.7 nM
same,EC50,[2]; read-out: mBCMA (MFI) EC50,10.7 nM
same,mBCMA (MFI) Fold Increase,[3],6.6 fold
same,BCMA (Mean Fluorescence Intensity) 1 nM Compound (22),"[3]; 1 nM, 24 h",855
same,BCMA (Mean Fluorescence Intensity) 100 nM Compound (22),"[3]; 100 nM, 24 h",4782
same,EC50,[3]; [16],5.6 nM
same,EC50,[3]; read-out: mBCMA (MFI) EC50,5.6 nM
same,mBCMA (MFI) Fold Increase,[4],5.6 fold
same,BCMA (Mean Fluorescence Intensity) 1 nM Compound (22),"[4]; 1 nM, 24 h",41993
same,BCMA (Mean Fluorescence Intensity) 100 nM Compound (22),"[4]; 100 nM, 24 h",51080
same,EC50,[4]; [16],0.56 nM
same,EC50,[4]; read-out: mBCMA (MFI) EC50,0.56 nM
same,EC50,"[5]; JIYOYE, read-out: mBCMA (MFI) EC50",7.6 nM
same,EC50,"[5]; Jiyoye, 24 h, read-out: BCMA (Mean Fluorescence Intensity) EC50",7.6 nM
same,mBCMA (MFI) Fold Increase,[5]; Jiyoye,4.2 fold
same,BCMA (Mean Fluorescence Intensity) 1 nM Compound (22),"[5]; Jiyoye, 1 nM, 24 h",1864
same,BCMA (Mean Fluorescence Intensity) 100 nM Compound (22),"[5]; Jiyoye, 100 nM, 24 h",2616
same,cell-bound BCMA,"[5]; Jiyoye, FIG. 8A",increased cell-bound BCMA
same,mBCMA (MFI) Fold Increase,SUDHL-8 cells (DLBCL),1.7 fold
same,BCMA (Mean Fluorescence Intensity) 1 nM Compound (22),"SUDHL-8 cells (DLBCL); 1 nM, 24 h",350
same,BCMA (Mean Fluorescence Intensity) 100 nM Compound (22),"SUDHL-8 cells (DLBCL); 100 nM, 24 h",414
same,EC50,"SUDHL-8 cells (DLBCL); SU-DHL-8, 24 h, read-out: BCMA (Mean Fluorescence Intensity) EC50",> 10000 nM
same,EC50,"SUDHL-8 cells (DLBCL); SU-DHL-8, read-out: mBCMA (MFI) EC50",> 10000 nM
same,mBCMA (MFI) Fold Increase,SUDHL-10 cells (DLBCL),6.7 fold
same,BCMA (Mean Fluorescence Intensity) 1 nM Compound (22),"SUDHL-10 cells (DLBCL); 1 nM, 24 h",6061
same,BCMA (Mean Fluorescence Intensity) 100 nM Compound (22),"SUDHL-10 cells (DLBCL); 100 nM, 24 h",7822
same,EC50,"SUDHL-10 cells (DLBCL); SU-DHL10, 24 h, read-out: BCMA (Mean Fluorescence Intensity) EC50",5.9 nM
same,EC50,"SUDHL-10 cells (DLBCL); SU-DHL10, read-out: mBCMA (MFI) EC50",5.9 nM
same,mBCMA (MFI) Fold Increase,[6],10.8 fold
same,BCMA (Mean Fluorescence Intensity) 1 nM Compound (22),"[6]; 1 nM, 24 h",4899
same,BCMA (Mean Fluorescence Intensity) 100 nM Compound (22),"[6]; 100 nM, 24 h",10264
same,EC50,[6]; [16],1.4 nM
same,EC50,[6]; read-out: mBCMA (MFI) EC50,1.4 nM
same,mBCMA (MFI) Fold Increase,[7],1.0 fold
same,BCMA (Mean Fluorescence Intensity) 1 nM Compound (22),"[7]; 1 nM, 24 h",289
same,BCMA (Mean Fluorescence Intensity) 100 nM Compound (22),"[7]; 100 nM, 24 h",293
same,EC50,[7]; [16],> 10000 nM
same,EC50,[7]; read-out: mBCMA (MFI) EC50,> 10000 nM
same,mBCMA (MFI) Fold Increase,[8],0.5 fold
same,BCMA (Mean Fluorescence Intensity) 1 nM Compound (22),"[8]; 1 nM, 24 h",549
same,BCMA (Mean Fluorescence Intensity) 100 nM Compound (22),"[8]; 100 nM, 24 h",449
same,EC50,[8]; [16],> 10000 nM
same,EC50,[8]; read-out: mBCMA (MFI) EC50,> 10000 nM
same,mBCMA (MFI) Fold Increase,[9],1.0 fold
same,BCMA (Mean Fluorescence Intensity) 1 nM Compound (22),"[9]; 1 nM, 24 h",327
same,BCMA (Mean Fluorescence Intensity) 100 nM Compound (22),"[9]; 100 nM, 24 h",328
same,EC50,"[9]; U-937, 24 h, read-out: BCMA (Mean Fluorescence Intensity) EC50",> 10000 nM
same,EC50,"[9]; U-937, read-out: mBCMA (MFI) EC50",> 10000 nM
same,mBCMA (MFI) Fold Increase,[10],6.6 fold
same,BCMA (Mean Fluorescence Intensity) 1 nM Compound (22),"[10]; 1 nM, 24 h",971.5
same,BCMA (Mean Fluorescence Intensity) 100 nM Compound (22),"[10]; 100 nM, 24 h",3287.5
same,EC50,[10]; [16],7 nM
same,EC50,[10]; read-out: mBCMA (MFI) EC50,7 nM
same,mBCMA (MFI) Fold Increase,[11],5.5 fold
same,BCMA (Mean Fluorescence Intensity) 1 nM Compound (22),"[11]; 1 nM, 24 h",6424
same,BCMA (Mean Fluorescence Intensity) 100 nM Compound (22),"[11]; 100 nM, 24 h",13506
same,EC50,[11]; [16],2.3 nM
same,EC50,[11]; read-out: mBCMA (MFI) EC50,2.3 nM
same,mBCMA (MFI) Fold Increase,[12],1.1 fold
same,BCMA (Mean Fluorescence Intensity) 1 nM Compound (22),"[12]; 1 nM, 24 h",811
same,BCMA (Mean Fluorescence Intensity) 100 nM Compound (22),"[12]; 100 nM, 24 h",900
same,EC50,[12]; [16],> 10000 nM
same,EC50,[12]; read-out: mBCMA (MFI) EC50,> 10000 nM
same,mBCMA (MFI) Fold Increase,[13],4.2 fold
same,BCMA (Mean Fluorescence Intensity) 1 nM Compound (22),"[13]; 1 nM, 24 h",1421
same,BCMA (Mean Fluorescence Intensity) 100 nM Compound (22),"[13]; 100 nM, 24 h",2242
same,cell-bound BCMA,[13]; FIG. 7A,increased cell-bound BCMA
same,EC50,[13]; [16],4.9 nM
same,EC50,[13]; read-out: mBCMA (MFI) EC50,4.9 nM
same,mBCMA (MFI) Fold Increase,[14],2.9 fold
same,BCMA (Mean Fluorescence Intensity) 1 nM Compound (22),"[14]; 1 nM, 24 h",398
same,BCMA (Mean Fluorescence Intensity) 100 nM Compound (22),"[14]; 100 nM, 24 h",1159
same,cell-bound BCMA,[14]; FIG. 6A,increased cell-bound BCMA
same,EC50,[14]; [16],45.6 nM
same,EC50,[14]; read-out: mBCMA (MFI) EC50,45.6 nM
same,mBCMA (MFI) Fold Increase,DB cells (DLBCL),4.1 fold
same,BCMA (Mean Fluorescence Intensity) 1 nM Compound (22),"DB cells (DLBCL); 1 nM, 24 h",870
same,BCMA (Mean Fluorescence Intensity) 100 nM Compound (22),"DB cells (DLBCL); 100 nM, 24 h",1827
same,cell-bound BCMA,DB cells (DLBCL); FIG. 9A,increased cell-bound BCMA
same,EC50,DB cells (DLBCL); [16],4.9 nM
same,EC50,DB cells (DLBCL); read-out: mBCMA (MFI) EC50,4.9 nM
same,mBCMA (MFI) Fold Increase,[15],1.0 fold
same,BCMA (Mean Fluorescence Intensity) 1 nM Compound (22),"[15]; 1 nM, 24 h",440
same,BCMA (Mean Fluorescence Intensity) 100 nM Compound (22),"[15]; 100 nM, 24 h",445
same,EC50,[15]; [16],> 10000 nM
same,EC50,[15]; read-out: mBCMA (MFI) EC50,> 10000 nM
